What was measured:
washed human platelets = assay: Aggregation of washed human platelets (stimulus 1 μM U46619); assay type: cell-based; settings: Platelet; aspirin-treated washed human platelets; compound added 2 min before 1 μM U46619; assessed 4 min after stimulus; 37° C.
Description: METHOD FOR MEASUREMENT OF AGGREGATION OF WASHED HUMAN PLATELETS
Platelets were prepared from freshly drawn human blood. Blood was collected into acid citrate anticoagulant, centrifuged (5 min at 500 g), and the upper layer of platelet-rich plasma was removed. This platelet-rich plasma was incubated with aspirin (100 μM) for 10 min at 37° C. and then centrifuged (15 min at 200 g). The platelet pellet was resuspended (at approx. 1.5×10^8 cells/ml) in medium containing NaCl (145 mM), KCl (5 mM), MgCl2 (1 mM), CaCl2 (0.2 mM), Hepes (10 mM, ph 7.4 at 37° C.), glucose (10 mM), apyrase (10 μg/ml). Aggregation was monitored (as a change in optical density) at 37° C. in a 4 channel aggregometer (PAP-4 from Biodata Corp.). Fibrinogen (1 mg/ml) and CaCl2 (1 mM) were added to aliquots of platelets that were continuously stirred. The test compound (or 0.1% DMSO vehicle) was added 2 min before the aggregatory stimulus (1 μM U46619). The extent of aggregation was assessed 4 min after addition of the stimulus, and was calculated as % of the control response in the absence of test compound. Dose-response curves were constructed for measurement of IC50 values for each compound.

[1] = target: T1, [^3 H]iloprost binding to human platelet membranes (Homo sapiens, UniProt P43119); assay: Inhibition of [^3 H]iloprost binding to human platelet membranes; settings: [^3 H]iloprost 10 nM; pH 7.4; 30 min at 37° C.; calculated from IC50 for displacement
T1 construct: Membranes were prepared from outdated platelet-rich plasma concentrates obtained from the Blood Transfusion Service; from tissue; host or cells: human platelets (outdated platelet-rich plasma concentrates from the Blood Transfusion Service)
Description: METHOD FOR MEASUREMENT OF KI FOR INHIBITION OF [^3 H]ILOPROST BINDING TO HUMAN PLATELET MEMBRANES
Membranes were prepared from outdated platelet-rich plasma concentrates obtained from the Blood Transfusion Service. The platelets were homogenised in buffer containing Tris-Cl (5 mM, pH 7.4 at 20° C.) and EDTA (0.25 mM), and then centrifuged (10 min at 26,000 g). The membrane pellet was washed twice by homogenisation in buffer containing Tris-Cl (50 mM, pH 7.4 at 20° C.) and EDTA (0.25 mM), followed by centrifugation. For measurement of [^3 H]iloprost binding, membranes (0.4-0.8 mg) were incubated in the presence of Tris-Cl (50 mM, pH 7.4 at 20° C.), MgCl2 (4 mM), EDTA (40 μM), […] (10 nM), DMSO (1.85%), and varying concentrations of the test compounds. For determination of non-specific binding, 20 μM iloprost was included. The tubes (triplicates for each condition) were set up on ice, and then incubated for 30 min at 37° C. The incubations were terminated by rapid filtration on Whatman GF/B filters using a Brandel Harvester. The filters were washed and then counted for radioactivity. The Ki of the test compounds for inhibition of binding of [^3 H] iloprost to human platelet membranes was calculated from the IC50 for displacement of [^3 H]iloprost binding.

T1 sequence (P43119 whole entry, the tested form may be a part): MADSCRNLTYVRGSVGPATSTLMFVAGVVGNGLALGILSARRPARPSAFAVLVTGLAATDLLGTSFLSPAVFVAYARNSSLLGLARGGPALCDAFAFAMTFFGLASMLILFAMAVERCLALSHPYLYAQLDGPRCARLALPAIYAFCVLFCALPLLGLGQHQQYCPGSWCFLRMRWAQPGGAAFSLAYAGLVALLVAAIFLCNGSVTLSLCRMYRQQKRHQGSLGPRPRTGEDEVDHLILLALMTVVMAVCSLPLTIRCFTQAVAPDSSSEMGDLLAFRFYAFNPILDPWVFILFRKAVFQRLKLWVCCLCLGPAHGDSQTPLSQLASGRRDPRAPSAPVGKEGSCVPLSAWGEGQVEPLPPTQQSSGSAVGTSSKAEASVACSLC

Structure (SMILES)	IC50 (washed human platelets) [µM]	Ki [1] [µM]
O=c1n(CCCCCCCS(=O)(=O)O)c(-c2ccccc2)c(-c2ccccc2)n1-c1ccccc1 [Example 1, Sodium 7(3,4,5-triphenyl-2-oxo-2,3-dihydroimidazol-1-yl)-heptanesulphonate]	0.25	8
O=c1n(CCCCCCCP(=O)(O)O)c(-c2ccccc2)c(-c2ccccc2)n1-c1ccccc1 [Example 3, 7-(3,4,5-Triphenyl-2-oxo-2,3-dihydroimidazol-1-yl)-heptanephosphonic acid]	43	1.29
CCOP(=O)(CCCCCCCn1c(-c2ccccc2)c(-c2ccccc2)n(-c2ccccc2)c1=O)OCC [Example 2, Diethyl 7-(3,4,5-triphenyl-2-oxo-2,3-dihydroimidazol-1-yl)heptanephosphonate]	5.5	30
CCOP(C)(=O)CCCCCCCn1c(-c2ccccc2)c(-c2ccccc2)n(-c2ccccc2)c1=O (centres unmarked) [Example 4, Ethyl 7-(3,4,5-triphenyl-2-oxo-2,3-dihydroimidazol-1-yl)methylphosphinate]	21	19
